Holding throughout (format): cell-based
Test [1] concerns apolipoprotein E (ApoE) mRNA in HepG2 cells. The experiment in a line: Target gene quantification (quantitative real-time PCR), ApoE. To be noted: HepG2, 7 at 30 µM versus bexarotene at 1 µM, 8 h, qRT-PCR. The procedure:
(§1) Moreover, 7 was characterized for its ability to modulate RXR target gene expression under more physiological conditions. Hepatoma cells (HepG2) were incubated with 7 (30 µM) or reference RXR agonist bexarotene (9, 1 µM) for eight hours and mRNA expression of RXR regulated genes ATP-binding cassette transporter A1 (ABCA1), angiopoietin like protein 4 (ANGPTL4) and apolipoprotein E (ApoE) was analysed by quantitative real-time PCR.
(§2) HepG2 cells were incubated with test compound 7 (30 µM) or bexarotene (1 µM) as positive control each dissolved in 0.1% DMSO or 0.1% DMSO alone as untreated control for 8 h, harvested, washed with cold phosphate buffered saline (PBS) and then directly used for RNA extraction with the Total RNA Mini Kit (R6834-02, Omega Bio-Tek, Inc., Norcross, GA, USA). 2 µg RNA were reverse-transcribed into cDNA using the High-Capacity cDNA Reverse Transcription Kit (4368814, Thermo Fischer Scientific, Inc.). RXR target gene expression was evaluated by quantitative real time PCR analysis with a StepOnePlus™ System (Life Technologies, Carlsbad, CA, USA) using PowerSYBRGreen (Life Technologies; 12.5 µl per well) and the primers reported in Supplementary Table 4[58]. […] The expression was quantified by the comparative ∆∆Ct method. […] Results are expressed as mean ± standard error of the mean (SEM) relative mRNA expression compared to DMSO (0.1%) control which was set as 1.
(In general: In qPCR the cycle at which signal appears reflects the starting amount.)

Test [2] addresses T1, human RXRγ ligand binding domain (Gal4 hybrid receptor) (Homo sapiens, UniProt P48443).
T1 construct: expressed in transfected cells; host or cells: HEK293T
T1 sequence (P48443 231-459 limits assumed): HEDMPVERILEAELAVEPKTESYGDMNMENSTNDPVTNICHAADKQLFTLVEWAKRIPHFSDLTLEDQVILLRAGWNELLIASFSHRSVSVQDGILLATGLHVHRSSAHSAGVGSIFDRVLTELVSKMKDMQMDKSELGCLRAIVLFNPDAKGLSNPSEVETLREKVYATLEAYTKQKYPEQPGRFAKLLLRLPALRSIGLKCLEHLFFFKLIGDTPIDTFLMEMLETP
The experiment in a line: Gal4 hybrid reporter gene assay RXRγ. The following applies: HEK293T cells, n ≥ 4, read-out: RXRγ EC50 ± SEM. The procedure: The 20 top-ranked synthetic compounds were selected and tested in vitro for their modulatory activity on RXR (Supplementary Table 1). Compounds were tested in specific hybrid reporter gene assays for RXRα, RXRβ and RXRγ modulation[39]–[41]. These assays rely on a constitutively expressed hybrid receptor composed of the respective human RXR ligand binding domain and the DNA binding domain of the Gal4 receptor from yeast. A Gal4 responsive firefly luciferase was used as reporter gene and constitutively expressed renilla luciferase served as internal control for transfection efficiency and test compound toxicity. All selected compounds were tested at 50 µM concentration on RXRα and for active compounds (Supplementary Fig. 1), dose response curves were recorded on all three RXR subtypes.
(§3) The Gal4 hybrid reporter gene assays were conducted as reported previously[39]–[41]. pFA-CMV-based constructs comprising the ligand binding domain of the human nuclear receptor in question were used as expression plasmids for the chimera receptors. pFR-Luc (Stratagene) served as reporter plasmid and pRL-SV40 (Promega) for normalization of transfection efficiency and cell growth. The assays were conducted in 96-well format in HEK293T cells that were cultured as described previously[39]–[41]. Transient transfection was carried out using Lipofectamine LTX reagent (Invitrogen) according to the manufacturer’s protocol. After transfection and incubation with test compounds (12–14 h), cells were assayed for luciferase activity using Dual-Glo™ Luciferase Assay System (Promega) according to the manufacturer’s protocol. Luminescence was measured with an Infinite M200 luminometer (Tecan Deutschland GmbH). All hybrid assays were validated with reference agonists (PPARα: GW7647; PPARγ: pioglitazone; PPARδ: L165,041; LXRα/β: T0901317; FXR: GW4064; RXRs: bexarotene; RARs: tretinoin; VDR: calcitriol; CAR: CITCO; PXR: SR12813) which yielded EC50 values in agreement with literature. The assays were conducted in duplicates with at least two independent repeats and for active compounds repeated without hybrid receptor coding DNA for every test compound at the highest tested concentration to exclude unspecific effects.
Supplementary Figure 2. Dose-response curves for RXRα activation. Compounds were tested in specific hybrid reporter gene assays for RXRα, RXRβ and RXRγ modulation.^1–3 These assays rely on a constitutively expressed hybrid receptor composed of the respective human RXR ligand binding domain and the DNA binding domain of the Gal4 receptor from yeast. A Gal4 responsive firefly luciferase was used as reporter gene and constitutively expressed renilla luciferase served as internal control for transfection efficiency and test compound toxicity. […]

A further test concerns the target T2, LXRβ (Homo sapiens, UniProt P55055).
T2 construct: expressed in transfected cells; host or cells: HEK293T
T2 sequence (P55055 222-460 limits assumed): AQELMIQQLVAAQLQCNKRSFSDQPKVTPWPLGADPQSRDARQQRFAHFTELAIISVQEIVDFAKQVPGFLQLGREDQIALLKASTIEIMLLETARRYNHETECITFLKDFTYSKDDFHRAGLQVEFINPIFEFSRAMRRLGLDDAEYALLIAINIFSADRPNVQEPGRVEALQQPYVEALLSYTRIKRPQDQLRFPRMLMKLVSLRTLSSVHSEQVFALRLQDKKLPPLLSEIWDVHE
Kind of test: Gal4 hybrid reporter gene assay LXRβ (selectivity profiling). The procedure: as §1
as §3, with “All hybrid assays were validated with reference agonists (PPARα: GW7647; PPARγ: pioglitazone; PPARδ: L165,041; LXRα/β: T0901317; FXR: GW4064; RXRs: bexarotene; RARs: tretinoin; VDR: calcitriol; CAR: CITCO; PXR: SR12813) which yielded EC50 values in agreement with literature. The assays were conducted in duplicates with at least two independent repeats and for active compounds repeated without hybrid receptor coding DNA for every test compound at the highest tested concentration to exclude unspecific effects.” left out

The test system of test [3] is ATP-binding cassette transporter A1 (ABCA1) mRNA in HepG2 cells. The experiment in a line: Target gene quantification (quantitative real-time PCR), ABCA1. To be noted: HepG2, 7 at 30 µM versus bexarotene at 1 µM, 8 h, qRT-PCR. As to the method:
as §1, §2

The test system of test [4] is angiopoietin like protein 4 (ANGPTL4) mRNA in HepG2 cells. Kind of test: Target gene quantification (quantitative real-time PCR), ANGPTL4. To be noted: HepG2, 7 at 30 µM versus bexarotene at 1 µM, 8 h, qRT-PCR. The procedure:
as §1, §2

A further test concerns the target T3, RARα (Homo sapiens, UniProt P10276).
T3 construct: expressed in transfected cells; host or cells: HEK293T
T3 sequence (P10276 183-417 limits assumed): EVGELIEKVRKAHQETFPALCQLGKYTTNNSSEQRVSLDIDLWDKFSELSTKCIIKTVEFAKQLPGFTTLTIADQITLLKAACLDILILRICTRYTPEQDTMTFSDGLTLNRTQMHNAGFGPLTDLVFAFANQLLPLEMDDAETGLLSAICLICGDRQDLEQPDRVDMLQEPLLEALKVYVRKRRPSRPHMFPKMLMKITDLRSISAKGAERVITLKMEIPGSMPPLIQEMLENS
The experiment in a line: Gal4 hybrid reporter gene assay RARα (selectivity profiling). The procedure: as §1
as §3, with “All hybrid assays were validated with reference agonists (PPARα: GW7647; PPARγ: pioglitazone; PPARδ: L165,041; LXRα/β: T0901317; FXR: GW4064; RXRs: bexarotene; RARs: tretinoin; VDR: calcitriol; CAR: CITCO; PXR: SR12813) which yielded EC50 values in agreement with literature. The assays were conducted in duplicates with at least two independent repeats and for active compounds repeated without hybrid receptor coding DNA for every test compound at the highest tested concentration to exclude unspecific effects.” left out
For orientation: Reporter assays use an easily measured gene product as a stand-in for the process of interest.

One may read the EC50 as the midpoint of the concentration-response curve. With `CC(C)(C)c1cc(/C=N/NC(=O)c2ccc(N)cc2)cc(C(C)(C)C)c1` [Compound 7], in test [1], the “induction of ApoE mRNA expression” value is given as “comparable efficacy as RXR agonist bexarotene”. Besides, the EC50 in test [2] was 28.2 ± 0.1 µM. Besides, the “activity on LXRβ” value at LXRβ is on record as “no activity”. Moreover, the “induction of ABCA1 mRNA expression” value in test [3] is recorded as “comparable efficacy as RXR agonist bexarotene”. In addition, the “induction of ANGPTL4 mRNA expression” value in test [4] is reported as “comparable efficacy as RXR agonist bexarotene”. Also, at RARα, the “activity on RARα” value is recorded as “no activity”.

These data come from publication PMC6220272, “Scaffold-Hopping from Synthetic Drugs by Holistic Molecular Representation” (Scientific Reports, 2018).
